{"source": "patent US11596633B2", "about": "“SHP2 inhibitor compositions and methods for treating cancer” (Revolution Medicines, Inc., priority 2017, dated 2023)", "key": {"NCI-H1573": {"system": "NCI-H1573", "experiment": "3D cell viability (CTG)", "assay_type": "cell-based", "conditions": "Homo sapiens; NCI-H1573, KRAS G12A, 3D culture"}, "SW948": {"system": "SW948", "experiment": "3D cell viability (CTG)", "assay_type": "cell-based", "conditions": "Homo sapiens; SW948, KRAS Q61L, 3D culture"}, "Capan-1": {"system": "Capan-1", "experiment": "3D cell viability (CTG)", "assay_type": "cell-based", "conditions": "Homo sapiens; Capan-1, KRAS G12V, 3D culture"}, "KYSE-410": {"system": "KYSE-410", "experiment": "3D cell viability (CTG)", "assay_type": "cell-based", "conditions": "Homo sapiens; KYSE-410, KRAS G12C, 3D culture"}, "NCI-H1792": {"system": "NCI-H1792", "experiment": "3D cell viability (CTG)", "assay_type": "cell-based", "conditions": "Homo sapiens; NCI-H1792, KRAS G12C, 3D culture"}, "H358 KRas G12C xenograft": {"system": "H358 KRas G12C xenograft", "experiment": "NSCLC H358 xenograft, CB.17 SCID mice", "assay_type": "in vivo", "conditions": "oral administration", "procedure": "Compound A or Compound B were administered by oral gavage daily. The positive control, paclitaxel (30 mg/kg iv) in 5% ethanol, 5% cremophor EL, in 5% dextrose in deionized water was administered once every five days. Trametinib (1 mg/kg PO in 0.5% Methylcellulose+0.5% Tween 80) was administered by oral gavage daily. The study endpoint was defined as a mean tumor volume of 2000 mm^3 in the control group or 22 days, whichever came first. Mean tumor volume data are reported for all animals that remained on study."}, "NCI-H23": {"system": "NCI-H23", "experiment": "3D cell viability (CTG)", "assay_type": "cell-based", "conditions": "Homo sapiens; NCI-H23, KRAS G12C, 3D culture"}, "LS180": {"system": "LS180", "experiment": "3D cell viability (CTG)", "assay_type": "cell-based", "conditions": "Homo sapiens; LS180, KRAS G12D, 3D culture"}, "NCI-H2009": {"system": "NCI-H2009", "experiment": "3D cell viability (CTG)", "assay_type": "cell-based", "conditions": "Homo sapiens; NCI-H2009, KRAS G12A, 3D culture"}, "[1]": {"system": "phosphorylated RTKs in MDA-MB-231 cells", "experiment": "Phospho-RTK array", "assay_type": "cell-based", "conditions": "MDA-MB-231 (KRAS G13D), 24 hours; selumetinib 5 μM, Compound A 1 and 5 μM", "procedure": "To determine the effects of test article(s) on levels of phosphorylated RTKs, MDA-MB231 cells were seeded in 6-well plates and incubated overnight in full growth medium. Cells were treated for 24 hours with selumetinib (5 μM) or Compound A (1 and 5 μM) or left untreated (DMSO control). Lysates were generated using the lysis buffer provided with the kit (Phospho-RTK Array; R&D systems) with inclusion of a protease inhibitor cocktail. To control for protein concentration, total protein levels were quantified using BCA reagent kit. The levels of phospho-RTK were determined according to the manufacturer's instructions."}, "HCT116": {"system": "HCT116", "experiment": "3D cell viability (CTG)", "assay_type": "cell-based", "conditions": "Homo sapiens, HCT-116; HCT116, KRAS G13D, 3D culture"}, "NCI-H1373": {"system": "NCI-H1373", "experiment": "3D cell viability (CTG)", "assay_type": "cell-based", "conditions": "Homo sapiens; NCI-H1373, KRAS G12C, 3D culture"}, "LS513": {"system": "LS513", "experiment": "3D cell viability (CTG)", "assay_type": "cell-based", "conditions": "Homo sapiens, LS-513; LS513, KRAS G12D, 3D culture"}, "SW480": {"system": "SW480", "experiment": "3D cell viability (CTG)", "assay_type": "cell-based", "conditions": "Homo sapiens; SW480, KRAS G12V, 3D culture"}, "NCI-H1944": {"system": "NCI-H1944", "experiment": "3D cell viability (CTG)", "assay_type": "cell-based", "conditions": "Homo sapiens; NCI-H1944, KRAS G13D, 3D culture"}, "NCI-H1666": {"system": "NCI-H1666", "experiment": "3D proliferation (CTG)", "assay_type": "cell-based", "conditions": "NCI-H1666 (Class III BRAF G466V/+)"}, "p-ERK1/2 in Calu-1 cells": {"system": "p-ERK1/2 in Calu-1 cells", "experiment": "p-ERK AlphaLisa SureFire", "assay_type": "cell-based, human", "conditions": "Calu-1 cells (KRAS G12C)", "procedure": "Cells were plated at ˜20×10^3 cells per well and following overnight incubation were washed with serum-free media. Cells were then incubated for one hour with increasing concentrations of the test article in serum-free media containing 0.2% BSA prior to termination of the assay and measurement of pERK levels in cellular lysates by AlphaLisa SureFire Ultra kit conducted according to the manufacturer's instructions."}, "Cal-12T": {"system": "Cal-12T", "experiment": "3D proliferation (CTG)", "assay_type": "cell-based", "conditions": "Cal-12T (Class III BRAF G466V/+)"}, "[2]": {"system": "RAS-GTP in NCI-H1666 cells", "experiment": "RAS-GTP pulldown (Raf-RBD)", "assay_type": "cell-based", "conditions": "NCI-H1666 (Class III BRAF G466V/+)", "procedure": "(§1) To determine the effects of small molecules on levels of activated RAS-GTPase, cell lines of interest were cultured under standard 2D culture conditions. Cells were seeded and following overnight incubation incubated at 37° C. with vehicle (DMSO) or test article(s). After an appropriate incubation period, cells were washed and cell lysis buffer added to prepare a cell lysate. The levels of Ras-GTP in the lysates were determined using affinity purification of a Raf-RBD (Ras binding domain of Raf)/GTP-Ras complex. In one approach, the Pierce Active Ras Pulldown and Detection Kit was used. Briefly, clarified lysates (500 μg total protein, quantified by BCA) were mixed with glutathione resin, which had been preincubated with GST-Raf-RBD. The mixture was vortexed and incubated at 4° C. for 1 hour with gentle rocking. The resin was washed three times with lysis buffer and bound Ras-GTP eluted by addition of 2× reducing sample buffer. Eluted proteins were separated by SDS-PAGE using a 4-15% Tris-glycine gel (BioRad). Proteins were transferred to a nitrocellulose membrane for western blot using an anti-Ras antibody (Thermofisher, 1:200) and a Licor IRDye-800 anti-mouse secondary antibody (1:20,000). The Licor Odyssey CLx was used for visualization."}, "RAS-GTP in Cal-12T cells": {"system": "RAS-GTP in Cal-12T cells", "experiment": "RAS-GTP pulldown (Raf-RBD)", "assay_type": "cell-based", "conditions": "Cal-12T (Class III BRAF G466V/+)", "procedure": "as §1"}, "RAS-GTP in A375 cells": {"system": "RAS-GTP in A375 cells", "experiment": "RAS-GTP pulldown (Raf-RBD)", "assay_type": "cell-based", "conditions": "A375 (Class I BRAF V600E)", "procedure": "as §1"}, "[3]": {"system": "RAS-GTP in NCI-H508 cells", "experiment": "RAS-GTP pulldown (Raf-RBD)", "assay_type": "cell-based", "conditions": "NCI-H508 (Class III BRAF G596R/+)", "procedure": "as §1"}, "RAS-GTP in MeWo cells": {"system": "RAS-GTP in MeWo cells", "experiment": "RAS-GTP pulldown (Raf-RBD)", "assay_type": "cell-based", "conditions": "MeWo (NF1 LOF)", "procedure": "as §1"}}}
{"molecule": "Nc1nc(N2CCC3(CCC[C@H]3N)CC2)cnc1Sc1ccnc(Cl)c1Cl", "note": "[Compound A]", "values": [{"measurement": "IC50", "setting": "NCI-H1573", "value": 0.2, "unit": "µM"}, {"measurement": "IC50", "setting": "SW948", "value": "> 10", "unit": "µM"}, {"measurement": "IC50", "setting": "Capan-1", "value": "> 10", "unit": "µM"}, {"measurement": "IC50", "setting": "KYSE-410", "value": 0.1, "unit": "µM"}, {"measurement": "IC50", "setting": "NCI-H1792", "value": 1.2, "unit": "µM"}, {"measurement": "tumor volume", "setting": "H358 KRas G12C xenograft", "value": "dose-dependent decrease"}, {"measurement": "IC50", "setting": "NCI-H23", "value": 0.7, "unit": "µM"}, {"measurement": "IC50", "setting": "LS180", "value": "> 10", "unit": "µM"}, {"measurement": "IC50", "setting": "NCI-H2009", "value": 0.3, "unit": "µM"}, {"measurement": "feedback-driven p-RTK hyperactivation", "setting": "[1]", "value": "did not"}, {"measurement": "IC50", "setting": "HCT116", "value": "> 10", "unit": "µM"}, {"measurement": "IC50", "setting": "NCI-H1373", "value": 1.3, "unit": "µM"}, {"measurement": "IC50", "setting": "LS513", "value": 0.1, "unit": "µM"}, {"measurement": "IC50", "setting": "SW480", "value": "> 10", "unit": "µM"}, {"measurement": "IC50", "setting": "NCI-H1944", "value": "> 10", "unit": "µM"}]}
{"molecule": "Cc1nc(N2CCC3(CC2)CO[C@@H](C)[C@H]3N)c(CO)nc1-c1cccc(Cl)c1Cl", "note": "[Compound B]", "values": [{"measurement": "proliferation", "setting": "NCI-H1666", "value": "suppression"}, {"measurement": "inhibition of p-ERK1/2 levels", "setting": "p-ERK1/2 in Calu-1 cells", "value": "concentration-dependent inhibition"}, {"measurement": "proliferation", "setting": "Cal-12T", "value": "suppression"}, {"measurement": "RAS-GTP levels", "setting": "[2]", "value": "suppression"}, {"measurement": "RAS-GTP levels", "setting": "RAS-GTP in Cal-12T cells", "value": "suppression"}, {"measurement": "RAS-GTP levels", "setting": "RAS-GTP in A375 cells", "value": "failed to suppress"}, {"measurement": "RAS-GTP levels", "setting": "[3]", "value": "suppression"}, {"measurement": "RAS-GTP levels", "setting": "RAS-GTP in MeWo cells", "value": "downregulation"}]}
